The values that follow come from ChEMBL document CHEMBL3232869, “Anti-inflammatory components of Euphorbia humifusa Willd” (Bioorg Med Chem Lett, 2014).

The source made the active and inactive calls. The calls are words filed in the database; no cut-off is given here. A value given as a limit tells only on which side of the number the result lay.

In data set [1] the test system is RAW264.7. In words: Antiinflammatory activity in mouse RAW264.7 cells assessed as inhibition of LPS-induced TNF-alpha secretion at 10 uM after 18 hrs by sandwich ELISA. It is filed as functional. Background: In an ELISA, binding on a coated surface is turned into a signal by an enzyme label.
Data set [2] deals with T1, Bifunctional epoxide hydrolase 2 (Homo sapiens, UniProt P34913).
T1 sequence (P34913 whole entry): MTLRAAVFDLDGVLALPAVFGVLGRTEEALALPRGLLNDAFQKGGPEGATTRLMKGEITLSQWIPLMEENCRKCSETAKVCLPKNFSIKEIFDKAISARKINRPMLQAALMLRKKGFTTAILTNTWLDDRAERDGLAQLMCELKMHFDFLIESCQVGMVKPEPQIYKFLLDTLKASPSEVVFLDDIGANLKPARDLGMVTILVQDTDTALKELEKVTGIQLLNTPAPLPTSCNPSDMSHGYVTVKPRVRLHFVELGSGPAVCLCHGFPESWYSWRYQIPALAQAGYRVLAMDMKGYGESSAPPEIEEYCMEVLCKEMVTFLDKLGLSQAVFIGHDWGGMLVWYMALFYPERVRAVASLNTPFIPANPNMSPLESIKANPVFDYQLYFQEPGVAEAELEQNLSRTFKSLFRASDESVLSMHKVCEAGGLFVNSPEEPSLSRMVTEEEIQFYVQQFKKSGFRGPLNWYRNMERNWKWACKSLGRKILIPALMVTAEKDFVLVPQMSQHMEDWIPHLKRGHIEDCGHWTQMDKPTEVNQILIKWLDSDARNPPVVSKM
In words: Inhibition of sEH (unknown origin) assessed as substrate PHOME hydrolysis after 1 hr by fluorescence method.

Data set [3] deals with RAW264.7. In words: Antiinflammatory activity in mouse RAW264.7 cells assessed as inhibition of LPS-induced nitric oxide production at 10 uM after 18 hrs by griess reaction analysis. It is filed as functional. On the technique in general: Griess reagent forms a coloured azo dye with nitrite.
Data set [4] relates to RAW264.7. In words: Antiinflammatory activity in mouse RAW264.7 cells assessed as inhibition of LPS-induced nitric oxide production after 18 hrs by griess reaction analysis. Format: functional, cell-based. As to conditions: RAW264.7, 18 h.
Data set [5] relates to RAW264.7. Kind of data set: Antiinflammatory activity in mouse RAW264.7 cells assessed as inhibition of LPS-induced TNF-alpha secretion after 18 hrs by sandwich ELISA. It is filed as functional, cell-based. As to conditions: RAW264.7, 18 h.
The subject of data set [6] is RAW264.7. Kind of data set: Cytotoxicity against mouse RAW264.7 cells assessed as cell viability at 50 uM after 18 hrs by MTT assay in presence of LPS. The settings on record: raw264.7, 18 h. Format: cell-based. For orientation: Tetrazolium assays rely on reduction of a dye to a coloured formazan, in cell work by metabolically active cells.
The test system of data set [7] is RAW264.7. Kind of data set: Antiinflammatory activity in mouse RAW264.7 cells assessed as inhibition of LPS-induced nitric oxide production at 0.4 uM after 18 hrs by griess reaction analysis. Format: functional, cell-based.
The target in data set [8] is T2, Bifunctional epoxide hydrolase 2 (Homo sapiens) (UniProt P34913).
T2 sequence (whole entry): T1 sequence (P34913 whole entry)
In words: Inhibition of sEH (unknown origin) assessed as substrate PHOME hydrolysis at 25 uM after 1 hr by fluorescence method.

The test system of data set [9] is RAW264.7. In words: Antiinflammatory activity in mouse RAW264.7 cells assessed as inhibition of LPS-induced TNF-alpha secretion at 0.4 uM after 18 hrs by sandwich ELISA. It is filed as functional, cell-based.

Broadly, the inhibition is the percentage by which the read-out fell short of the control. The IC50 is the midpoint of a concentration-inhibition curve. As for `O=c1c(O[C@@H]2O[C@H](CO)[C@@H](O)[C@H](O)[C@H]2O)c(-c2ccc(O)cc2)oc2cc(O)cc(O)c12` [ASTRAGALIN], the inhibition result with RAW264.7 [1] was “Active”. Further, the IC50 in data set [2] is above 50 µM; with RAW264.7 [4], 37.1 µM; in the data set with RAW264.7 [5] it was 40.6 µM. For the same compound, the inhibition result with RAW264.7 [3], in the data set on RAW264.7 [7] and in the data set on RAW264.7 [9] was “inactive” each time. Moreover, the Activity entry in the data set on RAW264.7 [6] is reported as “Non-toxic”. In addition, the inhibition in data set [8] is above 40%.

As to `O=c1c(O[C@@H]2O[C@H](CO)[C@H](O)[C@H](O)[C@H]2O)c(-c2ccc(O)c(O)c2)oc2cc(O)cc(O)c12` [HYPEROSIDE], the inhibition result in the data set with RAW264.7 [1] is “Active”. The IC50 is 21.8 µM in data set [2], 48.8 µM in the data set with RAW264.7 [4] and above 50 µM with RAW264.7 [5]. In addition, the inhibition entry in the data set on RAW264.7 [3], in the data set with RAW264.7 [7] and in the data set on RAW264.7 [9] was “inactive” in each case. Moreover, the Activity result in the data set with RAW264.7 [6] is “Non-toxic”. In data set [8], the inhibition was above 40%.

Consider `O=C1C[C@H](C(=O)O)c2c1oc(=O)c1cc(O)c(O)c(O)c21`, for which the inhibition entry with RAW264.7 [1] is “Active”. Also, the figures for the half-inhibitory concentration (IC50) (in data set [2]; in the data set on RAW264.7 [4]; in the data set with RAW264.7 [5]) were 47.4 µM, 41.2 µM and 21.3 µM, respectively. The inhibition entry in the data set on RAW264.7 [3], with RAW264.7 [7] and with RAW264.7 [9] was “inactive” throughout. The Activity entry with RAW264.7 [6] is “Non-toxic”. Moreover, in data set [8], the inhibition is above 40%.

With `COC(=O)[C@H]1CC(=O)c2oc(=O)c3cc(O)c(O)c(O)c3c21`, the inhibition entry with RAW264.7 [1] and with RAW264.7 [3] was “Active” throughout. Moreover, the concentration for half-maximal inhibition (IC50) was above 50 µM in data set [2], 23.8 µM in the data set on RAW264.7 [4] and 21.2 µM in the data set on RAW264.7 [5]. For the same compound, the Activity result with RAW264.7 [6] was “Non-toxic”. In addition, the inhibition result in the data set with RAW264.7 [7] and in the data set on RAW264.7 [9] was “inactive” throughout. In addition, in [8], the inhibition was above 40%.

In the case of `O=c1c(O)c(-c2ccc(O)c(O)c2)oc2cc(O)cc(O)c12` [QUERCETIN], the inhibition result in the data set on RAW264.7 [1] was “Active”. Further, the IC50 was 33.5 µM in [2] and above 50 µM in the data set with RAW264.7 [4]. Besides, the inhibition result in the data set with RAW264.7 [3], in the data set with RAW264.7 [7] and in the data set on RAW264.7 [9] was “inactive” in each case. For the same compound, the Activity result in the data set on RAW264.7 [6] was “Non-toxic”. In [8], the inhibition is above 40%.

On to `O=c1c(O[C@@H]2O[C@H](CO)[C@@H](O)[C@H](O)[C@H]2O)c(-c2ccc(O)c(O)c2)oc2cc(O)cc(O)c12` [ISOQUERCETIN], for which the inhibition result in the data set with RAW264.7 [1] is “Active”. The results for the IC50 (in data set [2]; in the data set with RAW264.7 [5]) were 28.4 µM and above 50 µM, respectively. The inhibition entry in the data set with RAW264.7 [3], in the data set with RAW264.7 [7] and with RAW264.7 [9] was “inactive” in each case. Also, in the data set with RAW264.7 [6], the Activity entry is reported as “Non-toxic”. Besides, the inhibition in [8] was above 40%.

Take `O=c1c(O[C@@H]2O[C@H](CO)[C@@H](O)[C@H](O)[C@H]2O)c(-c2cc(O)c(O)c(O)c2)oc2cc(O)cc(O)c12`: the inhibition result in the data set on RAW264.7 [1] and in the data set with RAW264.7 [3] was “Active” each time. The IC50 worked out at 17.2 µM in data set [2] and 21.2 µM in the data set on RAW264.7 [4]. Further, the Activity result with RAW264.7 [6] is “Non-toxic”. Further, the inhibition entry in the data set with RAW264.7 [7] and in the data set with RAW264.7 [9] was “inactive” in each case. Further, the inhibition in [8] is above 40%.

Consider `C[C@@H]1O[C@@H](Oc2c(-c3ccc(O)c(O)c3)oc3cc(O)cc(O)c3c2=O)[C@H](OC(=O)c2cc(O)c(O)c(O)c2)[C@H](O)[C@H]1O`, for which, in the data set on RAW264.7 [1], the inhibition result was “Active”. Besides, the IC50 in data set [2] is 18.6 µM; in the data set on RAW264.7 [5] it was 26.1 µM. Further, the inhibition result with RAW264.7 [3], in the data set with RAW264.7 [7] and with RAW264.7 [9] was “inactive” in each case. In addition, the Activity result in the data set with RAW264.7 [6] is recorded as “Non-toxic”. In data set [8], the inhibition is above 40%.
